According to patent US20220000998A1 (priority 2019, published 2022):
No end group written: not given here.

Assays:
[1] = test system: B3Z T-cells; type: cell-based, murine
[2] = mouse, plasma

Sequence | T-cell activation after BMDC incubation with antibody constructs and the peptide [1] | half-life [2]
FIGITELKKLESKINKVFLEQLESIINFEKLAAAAAK [UU-05] | resulted in T-cell activation | 
FIGITELKKLESKINKVFAVGALKVPRNQDWLGVPRQL [UU-30] |  | 20 min
LEQLESIINFEKLAAAAAK [UU-10, reference compound] | did not give rise to T-cell activation | 
